Source: publication PMC10115881, “Disrupting the α-synuclein-ESCRT interaction with a peptide inhibitor mitigates neurodegeneration in preclinical models of Parkinson’s disease” (Nature Communications, 2023)

Experiments:
[1] = system: A53T a-syn-mediated cytotoxicity in HEK293 cells; experiment: Pooled lentiviral 7-mer peptide cytotoxicity screen, A53T a-syn + MG132; format: cell-based, human;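 on Slope Norm Reads: reads normalized to total peptide reads per sample with scalar factor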
Text: We used a lentiviral library of 50,549 7-mer peptides enriched in PPI motifs[13] on a green fluorescent protein (GFP) scaffold (Fig. 1A). We infected cells in a pooled format and the amino acid sequence of each peptide served as its own barcode. By using a low multiplicity of infection followed by puromycin selection, each infected cell expressed one unique GFP-peptide. We screened for peptides that reduced a-syn-mediated cytotoxicity or a-syn oligomers in parallel (Fig. 1A). To cause cytotoxicity relevant to PD, we induced proteostatic stress in HEK293 cells by inhibiting the proteasome with MG132 and overexpressing human WT a-syn associated with idiopathic PD in one screen or the more toxic mutant A53T a-syn associated with familial PD in a second screen. This combination of a-syn overexpression and pharmacological proteasome inhibition led to death of most cells, with only those that expressed a protective peptide surviving. By extracting genomic DNA from the surviving cells and amplifying the peptide coding sequences, we identified the protective peptides (Fig. 1A). To detect a-syn oligomers, we used a protein fragment complementation assay (PCA) of a-syn oligomerization in HEK293 cells. In this assay, human A53T a-syn was fused to either the C- or N-terminal half of yellow fluorescent protein (YFP). No fluorescence is detectable while a-syn exists in monomers but, when a-syn oligomerizes, the two halves of YFP come in close enough proximity to form a functional, spontaneously fluorescent protein. […] Our screens yielded 10 hits (Table S1). The hit with the most reads (i.e., the most abundant) was the same peptide in all screens: IPIQLKA (named PDpep1) (Table S1). We validated the cytoprotective effects of PDpep1 in HEK293 cells overexpressing WT or A53T a-syn (Figs. 1B, S1A), as well as its ability to reduce WT or A53T a-syn oligomers in a luciferase-based PCA[18]–[20] compared to a scrambled control peptide (Figs. 1C, S1B).
HEK293T cells (ATCC, CRL-3216) were maintained in DMEM supplemented with 10% FBS and 1% pen/strep/glutamine, and the appropriate selection antibiotics when required. Lentiviruses were made in a 15 cm dish format by transfecting packaging cells (HEK293T) with a three-plasmid system (expression vector, psPAX2 and pMD2.G) and using Polyjet DNA transfection reagent (FroggaBio, SL100688.1). Viral transduction of HEK293T cells were performed with a multiplicity of infection (MOI) of 0.3. Infected cells were selected in puromycin-containing medium to eliminate uninfected cells and three aliquots of cells were collected for sampling of the initial (T0) cell population. Cells were treated with MG132 at concentrations of 0, 10, 25, or 50 µM. For the cell viability screen, surviving cells were collected and gDNA was extracted for identification of peptide inhibitors of cell toxicity. For the inhibition of a-syn aggregation screen, a protein fragment complementation assay (PCA) was used by transfecting cells with split YFP-a-syn constructs following stable expression of the peptides. Cells were sorted based on their YFP fluorescence intensities with a FACSVantage SE cell sorter (BD Bioscience) and gDNA was extracted for identification of peptides.
Genomic DNA (gDNA) from peptide expressing cells at different time-points was extracted using QIAamp DNA Blood Mini Kit. PCR amplifications of peptides from gDNA in parallel with the lentiviral plasmid library (naïve library) were performed using indexed Illumina PCR primers to incorporate both the Illumina adapter sequences and indexing sequences. Each 50 μl reaction contained 3.2 μg of template, 2× PCR buffer, 2× enhancer solution, 300 μM each dNTP, 900 nM each of Adapter A (5′-[…]-[…]-3′) and Adapter B (5′-[…]-[…]-3′), 1 mM MgSO4, 3.75 units of Platinum Pfx polymerase, and water to 50 μl. […]

LAMP1 = LAMP1 fluorescence in rat cortical neurons; format: cell-based; conditions: A53T a-syn
Text: (§1) Pregnant rats (E17) of the Sprague-Dawley strain were purchased from Envigo. Embryos were surgically removed from the mothers and cortices dissected in Hanks Balanced salt solution (Gibco). The meninges were removed, and cells were dissociated using a papain dissociation system (Worthington) before being resuspended in Neurobasal medium A supplemented with antibiotic-antimycotic solution (Gibco), L-glutamine substitute (GlutaMAX™; Gibco) and factor B27 (Gibco). […]
(§2) After fixation, cells were permeabilized with 0.2% Triton-X-100 for 15 min, washed three times with PBS and then incubated with blocking solution (1% BSA, 22.52 mg/mL glycine, 0.1% Tween-20 in PBS or 0.4% saponin, 1% BSA, and 5% goat or donkey serum in PBS) for 1 h. […] Following another three washes with PBS, nuclei were counterstained with DAPI (ThermoFisher) and then coverslips were mounted on slides using Dako fluorescence mounting medium (Agilent) and sealed using clear nail varnish.
(§3) Confocal images of primary cortical neurons, iPSC-derived dopaminergic neurons, and LAMP1 staining within the SN were processed using Imaris software (Oxford instruments). […] Mean pixel intensity per GFP^+ cell (for experiments using GFP-tagged peptides) or RFP^+ cell (for experiments using RFP-tagged peptides) was calculated for a-syn or LAMP1 signal using the software’s surfaces module. […]

Rab7 = Rab7 fluorescence in rat cortical neurons; format: cell-based; conditions: A53T a-syn
Text: as §1, §2, §3

cathepsin D = experiment: Cathepsin D fluorescence in rat cortical neurons; format: cell-based; conditions: A53T a-syn
Text: as §1, §2, §3

| Substance | Reads 10M MG132 [1] | Reads 25M MG132 [1] | Reads 50M MG132 [1] | Slope Norm Reads [1] | Reads 0M MG132 ([1]; Illumina reads, average Phred >30) | Effect on LAMP1, neurons (LAMP1) | Effect on Rab7 (Rab7) | Effect on cathepsin D (cathepsin D) |
| --- | --- | --- | --- | --- | --- | --- | --- | --- |
| IPIQLKA [PDpep1, initial screen hit peptide IPIQLKA] | 20 | 3859 | 13308 | 40.54 | 168 |  |  |  |
| DEEIERQLKALG [PDpep1.3] |  |  |  |  |  | restored LAMP1 levels | normalized | reduced to control levels |
